Data as given in patent US12570666B2, “Furoindazole derivatives” (Bayer Aktiengesellschaft, priority 2019, dated 2026).

Biological target: T1, human GPR84 receptor (Homo sapiens, UniProt Q9NQS5)
T1 construct: frozen aliquots prepared by acCELLerate; host or cells: CHO-K1
Experiment: cAMP HTRF assay for identification of cellular GPR84 antagonists
Type: cell-based
Details: CHO-K1 cells stably expressing human GPR84; Forskolin + agonist 6-OAU (EC80); average or median values
Method in brief: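 Forskolin-stimulated CHO-K1 cells stably expressing human GPR84, agonist-suppressed cAMP measured by HTRF (665/620 ratio) after lysis. Compounds at 11 concentrations, 20 μM to 0.07 nM, duplicate; normalized to DMSO and no-agonist controls; IC50 by 4-parameter fit.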

T1 sequence (Q9NQS5 whole entry): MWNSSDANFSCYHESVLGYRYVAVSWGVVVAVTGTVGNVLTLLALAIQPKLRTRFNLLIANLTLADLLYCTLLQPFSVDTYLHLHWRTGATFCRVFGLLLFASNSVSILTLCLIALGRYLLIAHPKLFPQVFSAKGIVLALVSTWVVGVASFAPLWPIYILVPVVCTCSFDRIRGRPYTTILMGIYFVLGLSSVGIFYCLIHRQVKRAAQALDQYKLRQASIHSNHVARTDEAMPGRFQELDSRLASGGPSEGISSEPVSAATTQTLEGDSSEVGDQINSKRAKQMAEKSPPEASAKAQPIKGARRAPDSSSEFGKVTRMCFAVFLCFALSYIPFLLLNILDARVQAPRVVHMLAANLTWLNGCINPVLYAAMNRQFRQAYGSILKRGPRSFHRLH

| Compound | IC50 [nM] |
| --- | --- |
| Cc1c(C(=O)N2CCCC2CN)oc2c1-c1nn(Cc3ccccn3)cc1CC2 (racemic) [Example 30, [(2R/S)-2-(aminomethyl)pyrrolidin-1-yl][8-methyl-2-(pyridin-2-ylmethyl)-4,5-dihydro-2H-furo[2,3-g]indazol-7-yl]methanone] | 3570 |
| O=C(NCc1cnccn1)c1oc2c(c1C(F)(F)F)-c1nn(C[C@H]3COCCO3)cc1CC2 [Example 228, 2-[(2S)-1,4-Dioxan-2-ylmethyl]-N-(pyrazin-2-ylmethyl)-8-(trifluormethyl)-4,5-dihydro-2H-furo[2,3-g]indazol-7-carboxamide] | 38 |
| Cc1c(C(=O)NC[C@@H]2COCCO2)oc2c1-c1nn(Cc3ccc(C(=O)NC[C@@H]4COCCO4)nc3)cc1CC2 [Example 147, N-[(2R)-1,4-dioxan-2-ylmethyl]-2-[(6-{[(2R)-1,4-dioxan-2-ylmethyl]carbamoyl}pyridin-3-yl)methyl]-8-methyl-4,5-dihydro-2H-furo[2,3-g]indazole-7-carboxamide] | 130 |
| CCC(=O)C(=O)N1CCC(Cn2cc3c(n2)-c2c(oc(C(=O)NC[C@@H]4CCCO4)c2C(F)(F)F)C[C@H]3C)CC1 (single isomer, unassigned) [Example 297, (4R or 4S)-4-methyl-2-{[1-(2-oxobutanoyl)piperidin-4-yl]methyl}-N-{[(2S)-oxolan-2-yl]methyl}-8-(trifluoromethyl)-4,5-dihydro-2H-furo[2,3-g]indazole-7-carboxamide] | 13 |
| O=C(NC[C@@H]1COCCO1)c1oc2c(c1C(F)(F)F)-c1nn(CC3CCN(C(=O)c4ccccc4)CC3)cc1CC2 [Example 287, 2-[(1-benzoylpiperidin-4-yl)methyl]-N-{[(2R)-1,4-dioxan-2-yl]methyl}-8-(trifluoromethyl)-4,5-dihydro-2H-furo[2,3-g]indazole-7-carboxamide] | 10 |
| Cc1c(C(=O)NC[C@@H]2COCCO2)oc2c1-c1nn(CC3CC3)cc1CC2 [Example 49, 2-(cyclopropylmethyl)-N-[(2R)-1,4-dioxan-2-ylmethyl]-8-methyl-4,5-dihydro-2H-furo[2,3-g]indazole-7-carboxamide] | 110 |
| O=C(NC[C@@H]1COCCO1)c1oc2c(c1C1CC1)-c1nn(C[C@H]3COCCO3)cc1CC2 [Example 193] | 32 |
| CCN1CCC(Cn2cc3c(n2)-c2c(oc(C(=O)NC[C@@H]4COCCO4)c2C(F)(F)F)CC3)CC1 [Example 312, N-{[(2R)-1,4-dioxan-2-yl]methyl}-2-[(1-ethylpiperidin-4-yl)methyl]-8-(trifluoromethyl)-4,5-dihydro-2H-furo[2,3-g]indazole-7-carboxamide] | 760 |
| O=C(NC[C@@H]1COCCO1)c1oc2c(c1C(F)F)-c1nn(C[C@H]3COCCO3)cc1CC2 [Example 244, 8-(difluoromethyl)-N-{[(2R)-1,4-dioxan-2-yl]methyl}-2-{[(2S)-1,4-dioxan-2-yl]methyl}-4,5-dihydro-2H-furo[2,3-g]indazole-7-carboxamide] | 53 |
| Cc1c(C(=O)NC[C@@H]2COCCO2)oc2c1-c1nn(Cc3cccnc3)cc1CC2 [Example 45, N-[(2R)-1,4-dioxan-2-ylmethyl]-8-methyl-2-(pyridin-3-ylmethyl)-4,5-dihydro-2H-furo[2,3-g]indazole-7-carboxamide] | 29 |
| CC1Cc2oc(C(=O)NC[C@@H]3COCCO3)c(C(F)(F)F)c2-c2nn(C[C@H]3COCCO3)cc21 (single isomer, unassigned) [Example 254-2, (4R or 4S)-N-{[(2R)-1,4-dioxan-2-yl]methyl}-2-{[(2S)-1,4-dioxan-2-yl]methyl}-4-methyl-8-(trifluoromethyl)-4,5-dihydro-2H-furo[2,3-g]indazole-7-carboxamide] | 46 |
| O=C(NC[C@@H]1COCCO1)c1oc2c(c1C(F)(F)F)-c1nn(Cc3ccccn3)cc1C1(CCC1)C2 [Example 273, N-[(2R)-1,4-Dioxan-2-ylmethyl]-2′-(pyridin-2-ylmethyl)-8′-(trifluormethyl)-2′,5′-dihydrospiro[cyclobutan-1,4′-furo[2,3-g]indazol]-7′-carboxamide] | 9 |
| Cc1c(C(=O)NC[C@@H]2CCCO2)oc2c1-c1nn(C[C@@H]3CCO3)cc1CC2 [Example 99, 8-methyl-2-[(2S)-oxetan-2-ylmethyl]-N-[(2S)-tetrahydrofuran-2-ylmethyl]-4,5-dihydro-2H-furo[2,3-g]indazole-7-carboxamide] | 210 |
| O=C(NC[C@@H]1CCCO1)c1oc2c(c1C(F)(F)F)-c1nn(CC3CCN(CC4CC4)CC3)cc1CC2 [Example 307, 2-{[1-(cyclopropylmethyl)piperidin-4-yl]methyl}-N-{[(2S)-oxolan-2-yl]methyl}-8-(trifluoromethyl)-4,5-dihydro-2H-furo[2,3-g]indazole-7-carboxamide] | 62 |
| O=C(NC[C@@H]1COCCO1)c1oc2c(c1C(F)(F)F)-c1nn(Cc3ccncc3)cc1C1(CC1)C2 [Example 216, N-[(2R)-1,4-Dioxan-2-ylmethyl]-2′-(pyridin-4-ylmethyl)-8′-(trifluormethyl)-2′,5′-dihydrospiro[cyclopropan-1,4′-furo[2,3-g]indazol]-7′-carboxamide] | 6 |
| O=C(NC[C@@H]1CCCO1)c1oc2c(c1C(F)(F)F)-c1nn(C[C@H]3COCCO3)cc1CC2 [Example 221, 2-{[(2S)-1,4-dioxan-2-yl]methyl}-N-{[(2S)-oxolan-2-yl]methyl}-8-(trifluoromethyl)-4,5-dihydro-2H-furo[2,3-g]indazole-7-carboxamide] | 8 |
| Cc1c(C(=O)NC[C@@H]2COCCO2)oc2c1-c1nn(CC3(F)COC3)cc1CC2 [Example 96, N-[(2R)-1,4-dioxan-2-ylmethyl]-2-[(3-fluorooxetan-3-yl)methyl]-8-methyl-4,5-dihydro-2H-furo[2,3-g]indazole-7-carboxamide] | 47 |
| Cc1ccc(Cn2cc3c(n2)-c2c(oc(C(=O)NC[C@@H]4CCCO4)c2C(F)(F)F)CC3)cn1 [Example 192] | 6 |
| Cc1c(C(=O)NCCN2CCN(c3cccc(C(F)(F)F)c3)CC2)oc2c1-c1nn(Cc3ccccn3)cc1CC2 [Example 13, 8-methyl-2-(pyridin-2-ylmethyl)-N-(2-{4-[3-(trifluoromethyl)phenyl]piperazin-1yl}ethyl)-4,5-dihydro-2H-furo[2,3-g]indazole-7-carboxamide] | 1650 |

Second part, the compound after the results:

| IC50 [nM] | Compound |
| --- | --- |
| 12000 | Cc1c(C(=O)NCC2CCCCO2)oc2c1-c1nn(Cc3ccccn3)cc1CC2 (racemic) [Example 172] |
| 447 | Cc1c(C(=O)NC[C@@H]2CCCO2)oc2c1-c1nn(Cc3cccnn3)cc1CC2 [Example 184] |
| 290 | COCCNC(=O)c1oc2c(c1C)-c1nn(Cc3ccccn3)cc1CC2 [Example 29, N-(2-methoxyethyl)-8-methyl-2-(pyridin-2-ylmethyl)-4,5-dihydro-2H-furo[2,3-g]indazole-7-carboxamide] |
| 160 | Cc1ncccc1Cn1cc2c(n1)-c1c(oc(C(=O)NC[C@@H]3COCCO3)c1C)CC2 [Example 74, N-[(2R)-1,4-dioxan-2-ylmethyl]-8-methyl-2-[(2-methylpyridin-3-yl)methyl]-4,5-dihydro-2H-furo[2,3-g]indazole-7-carboxamide] |
| 5 | Cc1ccc(Cn2cc3c(n2)-c2c(oc(C(=O)NC[C@@H]4CCCO4)c2C(F)(F)F)CC32CC2)nc1 [Example 214, 2′-[(5-methylpyridin-2-yl)methyl]-N-{[(2S)-oxolan-2-yl]methyl}-8′-(trifluoromethyl)-2′,5′-dihydrospiro[cyclopropane-1,4′-furo[2,3-g]indazole]-7′-carboxamide] |
| 1000 | O=C(NC[C@@H]1CCCO1)c1cc2c(o1)CCc1cn(Cc3ccccn3)nc1-2 [Example 1, 2-(pyridin-2-ylmethyl)-N-[(2S)-tetrahydrofuran-2-ylmethyl]-4,5-dihydro-2H-furo[2,3-g]indazole-7-carboxamide] |
| 1290 | Cc1c(C(=O)NC[C@H]2COCCO2)oc2c1-c1nn(CC3CC3)cc1C1(CC1)C2 [Example 130, 2′-(cyclopropylmethyl)-N-[(2S)-1,4-dioxan-2-ylmethyl]-8′-methyl-2′,5′-dihydrospiro[cyclopropane-1,4′-furo[2,3-g]indazole]-7′-carboxamide] |
| 110 | Cc1c(C(=O)NC[C@@H]2COCCO2)oc2c1-c1nn(C[C@@H]3COCCO3)cc1CC2 [Example 88, N,2-bis[(2R)-1,4-dioxan-2-ylmethyl]-8-methyl-4,5-dihydro-2H-furo[2,3-g]indazole-7-carboxamide] |
| > 20000 | Cc1c(C(=O)NC[C@@H]2COCCO2)oc2c1-c1nn(CCN3CCNCC3)cc1CC2 [Example 163, N-[(2R)-1,4-dioxan-2-ylmethyl]-8-methyl-2-[2-(piperazin-1-yl)ethyl]-4,5-dihydro-2H-furo[2,3-g]indazole-7-carboxamide] |
| 12 | O=C(NC[C@@H]1COCCO1)c1oc2c(c1C(F)(F)F)-c1nn(C[C@H]3COCCO3)cc1CC2 [Example 320, N-{[(2R)-1,4-dioxan-2-yl]methyl}-2-{[(2S)-1,4-dioxan-2-yl]methyl}-8-(trifluoromethyl)-4,5-dihydro-2H-furo[2,3-g]indazole-7-carboxamide] |
| 55 | Cc1c(C(=O)NC[C@@H]2CCCO2)oc2c1-c1nn(CC3CC3)cc1C1(CC1)C2 [Example 129, 2′-(cyclopropylmethyl)-8′-methyl-N-[(2S)-tetrahydrofuran-2-ylmethyl]-2′,5′-dihydrospiro[cyclopropane-1,4′-furo[2,3-g]indazole]-7′-carboxamide] |
| 97 | Cc1c(C(=O)NCc2cc(C(C)C)on2)oc2c1-c1nn(Cc3ccccn3)cc1CC2 [Example 18, N-[(5-isopropyl-1,2-oxazol-3-yl)methyl]-8-methyl-2-(pyridin-2-ylmethyl)-4,5-dihydro-2H-furo[2,3-g]indazole-7-carboxamide] |
